Data on two compounds can be found in patent US20230296616A1, “ARGININE FLUORESCENT PROBE, PREPARATION METHOD THEREFOR AND APPLICATION THEREOF” (East China University of Science and Technology, priority 2020, published 2023).

The nature of experiment [1]: specific detection of 20 amino acids by arginine fluorescent sensors. It counts as biochemical. The settings on record: FIG. 8.
Experiment [2] has as its target T1, STM4351-199/200-cpYFP, SEQ ID NO: 22, expressed in the cytosol of HeLa cells (arginine-binding protein STM4351 derived from Salmonella Typhimurium, SEQ ID NO: 1 (Salmonella enterica, UniProt Q8ZKA9, INS199[…]).
T1 construct: expressed in cytosol of HeLa cells from pAAV plasmid
As to the kind of experiment: dynamic monitoring of arginine transmembrane transport in HeLa cells. It is filed as cell-based. The settings on record: after 2 hours of starvation, 10 mM arginine, 20 minutes. The procedure: • 1. PAAV-based arginine optical sensor plasmids were transfected into HeLa by using the transfection reagent Lipofectamine2000 (Invitrogen) and incubated in a cell incubator at 37° C. with 5% CO2. After the exogenous gene was fully expressed for 24˜36 hours, the fluorescence detection was performed. • 2. After induction of expression, adherent HeLa cells were washed three times with PBS and placed in HMS solution for fluorescence microscopy and microplate reader assays, respectively.
36 hours after transfection of HeLa cells with plasmids encoding cytosolically expressed optical sensor STM4351-199/200-cpYFP, cells were rinsed using PBS, placed in HMS solution, and then changes in the ratio of the fluorescence intensity at 528 nm emission excited at 420 nm to that at 528 nm emission excited at 485 nm were detected over 40 min. After 2 hours of starvation, the ratio 485/420 increased gradually after adding 10 mM arginine for 20 minutes, and the highest ratio was 2.2 times. Same as STM4351-105/110-cpYFP sensor and STM4351-200/203-cpYFP sensor.

For experiment [3], the target named is T2, STM4351-104/110-cpYFP, SEQ ID NO: 7 (arginine-binding protein STM4351 derived from Salmonella Typhimurium, SEQ ID NO: 1) (Salmonella enterica, UniProt Q8ZKA9, DELINS105-109[…]).
T2 construct: His-tag, pET28a, E. coli JM109(DE3), purified
Briefly: fluorescence spectra of sensor with and without arginine. The settings on record: 500 mM vs 0 mM arginine. It counts as biochemical. The procedure:
(§1) • 1. The pET28a based arginine sensor plasmid was transformed into JM109 (DE3), incubated inverted overnight, and the clones were picked from the plates into 250 ml Erlenmeyer flasks, placed in a shaker at 37° C. and incubated at 220 rpm to OD=0.4-0.8, then 1/1000 (V/V) of IPTG (1 M) was added to induce expression at 18° C. for 24-36 h. • 2. Upon completion of inducible expression, cells were harvested by centrifugation at 4000 rpm for 30 min, resuspended in 50 mM phosphate buffer and disrupted ultrasonically until the broth were clear, centrifuged at 9600 rpm at 4° C. for 20 min. • 3. […] 100 μl 5 μM of protein solution was taken, incubated at 37° C. for 5 min, arginine was added to mix to a final concentration of 100 mM, respectively, the optical absorption of the protein at 340 nm was determined using a multifunctional fluorescence microplate reader. • 6. 100 μl 1 μM of fluorescent sensor solution was taken, incubated at 37° C. for 5 min, arginine was added for titration, and the fluorescence intensity of 528 nm emission after 485 nm fluorescence excitation of the protein was measured. The fluorescence excitation and emission determination of the samples were done using a multifunctional fluorescence microplate reader. • 7. […] Determination of the absorption and fluorescence spectra of the samples was done by spectrophotometer and spectrofluorometer. […]

For experiment [4], the target named is T3, STM4351-cpYFP fusion protein, insertion site 200/203, SEQ ID NO: 27 (arginine-binding protein STM4351 derived from Salmonella Typhimurium, SEQ ID NO: 1) (Salmonella enterica, UniProt Q8ZKA9, DELINS201-202[…]).
T3 construct: His-tag, pET28a, E. coli JM109(DE3), purified
Briefly: concentration gradient arginine detection (fluorescence ratio titration). The procedure:
(§2) • 1. The pET28a based arginine sensor plasmid was transformed into JM109 (DE3), incubated inverted overnight, and the clones were picked from the plates into 250 ml Erlenmeyer flasks, placed in a shaker at 37° C. and incubated at 220 rpm to OD=0.4-0.8, then 1/1000 (V/V) of IPTG (1 M) was added to induce expression at 18° C. for 24-36 h. • 2. Upon completion of inducible expression, cells were harvested by centrifugation at 4000 rpm for 30 min, resuspended in 50 mM phosphate buffer and disrupted ultrasonically until the broth were clear, centrifuged at 9600 rpm at 4° C. for 20 min. • 3. The centrifuged supernatant was used to obtain protein by purification through a self packed nickel column affinity chromatography column, and the protein obtained after nickel column affinity chromatography was further used to obtain protein dissolved in 20 mM MOPS buffer (pH 7.4) or phosphate buffer PBS. • 4. After purified arginine-binding protein muteins were subjected to SDS-PAGE, sensors were diluted to a protein solution having a final concentration of 5-10 μM using assay buffer (100 mm HEPES, 100 mM NaCl, pH 7.3) or phosphate buffer PBS. Arginine was formulated as a stock solution at a final concentration of 1 M with assay buffer (20 mM MOPS, pH 7.4) or phosphate buffer PBS. • 5. 100 μl 5 μM of protein solution was taken, incubated at 37° C. for 5 min, arginine was added to mix to a final concentration of 100 mM, respectively, the optical absorption of the protein at 340 nm was determined using a multifunctional fluorescence microplate reader. • 6. 100 μl 1 μM of fluorescent sensor solution was taken, incubated at 37° C. for 5 min, arginine was added for titration, and the fluorescence intensity of 528 nm emission after 485 nm fluorescence excitation of the protein was measured. The fluorescence excitation and emission determination of the samples were done using a multifunctional fluorescence microplate reader. • 7. 100 μl 1 μM of fluorescent sensor solution was taken, incubated at 37° C. for 5 min, and arginine was added to determine the absorption and fluorescence spectra of the sensor proteins. Determination of the absorption and fluorescence spectra of the samples was done by spectrophotometer and spectrofluorometer.

In experiment [5] the target is T4, STM4351-cpYFP fusion protein, insertion site 105/110, SEQ ID NO: 11 (arginine-binding protein STM4351 derived from Salmonella Typhimurium, SEQ ID NO: 1) (Salmonella enterica, UniProt Q8ZKA9, DELINS107-109[…]).
T4 construct: His-tag, pET28a, E. coli JM109(DE3), purified
Described as above. The procedure: as §2

The target in experiment [6] is T5, STM4351-cpYFP fusion protein, insertion site 199/200, SEQ ID NO: 22 (arginine-binding protein STM4351 derived from Salmonella Typhimurium, SEQ ID NO: 1) (Salmonella enterica, UniProt Q8ZKA9, INS199[…]).
T5 construct: His-tag, pET28a, E. coli JM109(DE3), purified
The experiment is described as above. The procedure:
as §2

Experiment [7] addresses T6, STM4351-cpYFP fusion protein, insertion site 200/205, SEQ ID NO: 29 (arginine-binding protein STM4351 derived from Salmonella Typhimurium, SEQ ID NO: 1) (Salmonella enterica, UniProt Q8ZKA9, DELINS201-204[…]).
T6 construct: His-tag, pET28a, E. coli JM109(DE3), purified
Described as above. The procedure:
as §2

Experiment [8] deals with T3, STM4351-cpYFP fusion protein, insertion site 200/203, SEQ ID NO: 27 (arginine-binding protein STM4351 derived from Salmonella Typhimurium, SEQ ID NO: 1). As to the kind of experiment: screening of purified fusion protein for arginine response. It counts as biochemical. The settings on record: cpYFP at 200/203; 100 mM arginine vs without arginine. The procedure:
as §2

The target in experiment [9] is T4, STM4351-cpYFP fusion protein, insertion site 105/110, SEQ ID NO: 11 (arginine-binding protein STM4351 derived from Salmonella Typhimurium, SEQ ID NO: 1). The experiment is described as above. It counts as biochemical. The settings on record: cpYFP at 105/110; 100 mM arginine vs without arginine. The procedure:
as §2

Experiment [10] has as its target T5, STM4351-cpYFP fusion protein, insertion site 199/200, SEQ ID NO: 22 (arginine-binding protein STM4351 derived from Salmonella Typhimurium, SEQ ID NO: 1). Described as above. The note with it: cpYFP at 199/200; 100 mM arginine vs without arginine. It counts as biochemical. The procedure:
as §2

The target of experiment [11] is T7, STM4351-cpYFP fusion protein, insertion site 104/110, SEQ ID NO: 7 (arginine-binding protein STM4351 derived from Salmonella Typhimurium, SEQ ID NO: 1) (Salmonella enterica, UniProt Q8ZKA9, DELINS105-109[…]).
T7 construct: His-tag, pET28a, E. coli JM109(DE3), purified
The description is as above. It counts as biochemical. The note with it: cpYFP at 104/110; 100 mM arginine vs without arginine. The procedure:
as §2

Experiment [12] concerns the target T8, STM4351-cpYFP fusion protein, insertion site 107/111, SEQ ID NO: 15 (arginine-binding protein STM4351 derived from Salmonella Typhimurium, SEQ ID NO: 1) (Salmonella enterica, UniProt Q8ZKA9, DELINS108-110[…]).
T8 construct: His-tag, pET28a, E. coli JM109(DE3), purified
Described as above. The note with it: cpYFP at 107/111; 100 mM arginine vs without arginine. It counts as biochemical. The procedure: as §2

In experiment [13] the target is T6, STM4351-cpYFP fusion protein, insertion site 200/205, SEQ ID NO: 29 (arginine-binding protein STM4351 derived from Salmonella Typhimurium, SEQ ID NO: 1). The experiment is described as above. It counts as biochemical. The note with it: cpYFP at 200/205; 100 mM arginine vs without arginine. The procedure: as §2
The target in experiment [14] is T9, STM4351-107/111-cpYFP variant S30N, SEQ ID NO: 40 (arginine-binding protein STM4351 derived from Salmonella Typhimurium) (Salmonella enterica, UniProt Q8ZKA9, DELINS108-110[…]/S30N).
T9 construct: His-tag, pET28a, E. coli JM109(DE3), purified
Briefly: fluorescence detection of mutated cpYFP optical sensor. The settings on record: S30N-107/111; detected according to Example 2. It is filed as biochemical. The procedure: as §1

Experiment [15] deals with T10, STM4351-107/111-cpYFP variant D177N, SEQ ID NO: 41 (arginine-binding protein STM4351 derived from Salmonella Typhimurium) (Salmonella enterica, UniProt Q8ZKA9, D177N/DELINS108-110[…]).
T10 construct: His-tag, pET28a, E. coli JM109(DE3), purified
The description is as above. It counts as biochemical. The settings on record: D177N-107/111; detected according to Example 2. The procedure:
as §1

With “199/201: arginine sensor: cpYFP inserted at site 199/201 of STM4351”, in experiment [1], the specificity for arginine result was “good specificity for arginine”.
As to `N=C(N)NCCC[C@H](N)C(=O)O` [arginine], in experiment [2], the “highest ratio 485/420” value stood at 2.2 times. Besides, the “decrease of fluorescence intensity excited at 420 nm” value in experiment [3] (excited at 420 nm) was determined as 1.4 times. The “increase in fluorescence intensity under excitation at 485 nm” value in experiment [3] (excited at 485 nm) came out at 2.0 fold. The change amplitude is recorded as 8.6 times in experiment [4], 4.3 times in experiment [5], 11.0 times in experiment [6] and 3.0 times in experiment [7]. The “response to arginine relative to control” value in experiment [8], in experiment [9], in experiment [10], in experiment [11], in experiment [12] and in experiment [13] was “more than 2 fold” each time. Besides, the “response to arginine relative to control” value in experiment [14] and in experiment [15] was “more than 3 times” throughout.
